Measurements as given in ChEMBL document CHEMBL4673219, “Novel 5,6-disubstituted pyrrolo[2,3-d]pyrimidine derivatives as broad spectrum antiproliferative agents: Synthesis, cell based assays, kinase profile and molecular docking study” (Bioorg Med Chem, 2018).
“And” between values parts separate entries of the source, which are not always exact repeats. Equal values may be shown once.

Legend:
HOP-62 = assay: Growth inhibition of human HOP-62 cells assessed as growth percentage at 1 uM incubated for 48 hrs by sulforhodamine B assay relative to control; format: functional; settings: read-out: Activity
SF-295 [1] = assay: Growth inhibition of human SF-295 cells incubated for 48 hrs by sulforhodamine B assay; format: functional
SNB-19 [2] = assay: Growth inhibition of human SNB-19 cells assessed as growth percentage at 10 uM incubated for 48 hrs by sulforhodamine B assay relative to control; format: functional; settings: read-out: Activity
HT-29 = assay: Growth inhibition of human HT-29 cells assessed as growth percentage at 0.1 uM incubated for 48 hrs by sulforhodamine B assay relative to control; format: functional; settings: read-out: Activity
K562 [3] = assay: Growth inhibition of human K562 cells incubated for 48 hrs by sulforhodamine B assay; format: functional; settings: Homo sapiens, K562, 48 h
A498 = assay: Growth inhibition of human A498 cells assessed as growth percentage at 10 uM incubated for 48 hrs by sulforhodamine B assay relative to control; format: functional; settings: read-out: Activity
SR = assay: Growth inhibition of human SR cells assessed as growth percentage at 10 uM incubated for 48 hrs by sulforhodamine B assay relative to control; format: functional; settings: read-out: Activity
TK-10 = assay: Growth inhibition of human TK-10 cells assessed as growth percentage at 1 uM incubated for 48 hrs by sulforhodamine B assay relative to control; format: functional; settings: read-out: Activity
HCC 2998 = assay: Growth inhibition of human HCC 2998 cells assessed as growth percentage at 10 uM incubated for 48 hrs by sulforhodamine B assay relative to control; format: functional; settings: read-out: Activity
SK-OV-3 = assay: Growth inhibition of human SK-OV-3 cells assessed as growth percentage at 0.1 uM incubated for 48 hrs by sulforhodamine B assay relative to control; format: functional; settings: read-out: Activity
SF-268 = assay: Growth inhibition of human SF-268 cells assessed as growth percentage at 10 uM incubated for 48 hrs by sulforhodamine B assay relative to control; format: functional; settings: read-out: Activity
NCI-H23 = assay: Growth inhibition of human NCI-H23 cells assessed as growth percentage at 100 uM incubated for 48 hrs by sulforhodamine B assay relative to control; format: functional; settings: read-out: Activity
CAKI-1 [4] = assay: Growth inhibition of human CAKI-1 cells assessed as growth percentage at 0.01 uM incubated for 48 hrs by sulforhodamine B assay relative to control; format: functional; settings: read-out: Activity
CAKI-1 [5] = assay: Growth inhibition of human CAKI-1 cells assessed as growth percentage at 1 uM incubated for 48 hrs by sulforhodamine B assay relative to control; format: functional; settings: read-out: Activity
OVCAR-3 [6] = assay: Growth inhibition of human OVCAR-3 cells assessed as growth percentage at 0.01 uM incubated for 48 hrs by sulforhodamine B assay relative to control; format: functional; settings: read-out: Activity
UACC-62 = assay: Growth inhibition of human UACC-62 cells incubated for 48 hrs by sulforhodamine B assay; format: functional; settings: Homo sapiens, UACC-62, 48 h
U-251 = assay: Growth inhibition of human U-251 cells assessed as growth percentage at 100 uM incubated for 48 hrs by sulforhodamine B assay relative to control; format: functional; settings: read-out: Activity
HCT-15 = assay: Growth inhibition of human HCT-15 cells assessed as growth percentage at 100 uM incubated for 48 hrs by sulforhodamine B assay relative to control; format: functional; settings: read-out: Activity
NCI/ADR-RES = assay: Growth inhibition of human NCI/ADR-RES cells assessed as growth percentage at 10 uM incubated for 48 hrs by sulforhodamine B assay relative to control; format: functional; settings: read-out: Activity
UO-31 [7] = assay: Growth inhibition of human UO-31 cells assessed as growth percentage at 0.01 uM incubated for 48 hrs by sulforhodamine B assay relative to control; format: functional; settings: read-out: Activity
OVCAR-3 [8] = assay: Growth inhibition of human OVCAR-3 cells incubated for 48 hrs by sulforhodamine B assay; format: functional; settings: Homo sapiens
SF-295 [9] = assay: Growth inhibition of human SF-295 cells assessed as growth percentage at 1 uM incubated for 48 hrs by sulforhodamine B assay relative to control; format: functional; settings: read-out: Activity
HOP-92 [10] = assay: Growth inhibition of human HOP-92 cells assessed as growth percentage at 10 uM incubated for 48 hrs by sulforhodamine B assay relative to control; format: functional; settings: read-out: Activity
CAKI-1 [11] = assay: Growth inhibition of human CAKI-1 cells incubated for 48 hrs by sulforhodamine B assay; format: functional
UO-31 [12] = assay: Growth inhibition of human UO-31 cells assessed as growth percentage at 100 uM incubated for 48 hrs by sulforhodamine B assay relative to control; format: functional; settings: read-out: Activity
HOP-92 [13] = assay: Growth inhibition of human HOP-92 cells assessed as growth percentage at 0.1 uM incubated for 48 hrs by sulforhodamine B assay relative to control; format: functional; settings: read-out: Activity
MOLT-4 = assay: Growth inhibition of human MOLT-4 cells assessed as growth percentage at 1 uM incubated for 48 hrs by sulforhodamine B assay relative to control; format: functional; settings: read-out: Activity
UO-31 [14] = assay: Growth inhibition of human UO-31 cells incubated for 48 hrs by sulforhodamine B assay; format: functional; settings: 48 h
SNB-19 [15] = assay: Growth inhibition of human SNB-19 cells assessed as growth percentage at 0.1 uM incubated for 48 hrs by sulforhodamine B assay relative to control; format: functional; settings: read-out: Activity
CCRF-CEM = assay: Growth inhibition of human CCRF-CEM cells assessed as growth percentage at 0.01 uM incubated for 48 hrs by sulforhodamine B assay relative to control; format: functional; settings: read-out: Activity
[16] = molecular target: High affinity nerve growth factor receptor (Homo sapiens, UniProt P04629); assay: Inhibition of human Trk-A using myelin basic protein as substrate incubated for 40 mins in presence of [gamma33P]ATP by scintillation counting method
SNB-75 = assay: Growth inhibition of human SNB-75 cells incubated for 48 hrs by sulforhodamine B assay; format: functional
MDA-MB-468 = assay: Growth inhibition of human MDA-MB-468 cells incubated for 48 hrs by sulforhodamine B assay; format: functional; settings: Homo sapiens
K562 [17] = assay: Growth inhibition of human K562 cells assessed as growth percentage at 100 uM incubated for 48 hrs by sulforhodamine B assay relative to control; format: functional; settings: read-out: Activity
SF-295 [18] = assay: Growth inhibition of human SF-295 cells assessed as growth percentage at 0.01 uM incubated for 48 hrs by sulforhodamine B assay relative to control; format: functional; settings: read-out: Activity
Malme-3M = assay: Growth inhibition of human Malme-3M cells assessed as growth percentage at 0.1 uM incubated for 48 hrs by sulforhodamine B assay relative to control; format: functional; settings: read-out: Activity
SW-620 = assay: Growth inhibition of human SW-620 cells assessed as growth percentage at 1 uM incubated for 48 hrs by sulforhodamine B assay relative to control; format: functional; settings: read-out: Activity
OVCAR-4 = assay: Growth inhibition of human OVCAR-4 cells assessed as growth percentage at 10 uM incubated for 48 hrs by sulforhodamine B assay relative to control; format: functional; settings: read-out: Activity

High affinity nerve growth factor receptor, sequence (P04629 whole entry): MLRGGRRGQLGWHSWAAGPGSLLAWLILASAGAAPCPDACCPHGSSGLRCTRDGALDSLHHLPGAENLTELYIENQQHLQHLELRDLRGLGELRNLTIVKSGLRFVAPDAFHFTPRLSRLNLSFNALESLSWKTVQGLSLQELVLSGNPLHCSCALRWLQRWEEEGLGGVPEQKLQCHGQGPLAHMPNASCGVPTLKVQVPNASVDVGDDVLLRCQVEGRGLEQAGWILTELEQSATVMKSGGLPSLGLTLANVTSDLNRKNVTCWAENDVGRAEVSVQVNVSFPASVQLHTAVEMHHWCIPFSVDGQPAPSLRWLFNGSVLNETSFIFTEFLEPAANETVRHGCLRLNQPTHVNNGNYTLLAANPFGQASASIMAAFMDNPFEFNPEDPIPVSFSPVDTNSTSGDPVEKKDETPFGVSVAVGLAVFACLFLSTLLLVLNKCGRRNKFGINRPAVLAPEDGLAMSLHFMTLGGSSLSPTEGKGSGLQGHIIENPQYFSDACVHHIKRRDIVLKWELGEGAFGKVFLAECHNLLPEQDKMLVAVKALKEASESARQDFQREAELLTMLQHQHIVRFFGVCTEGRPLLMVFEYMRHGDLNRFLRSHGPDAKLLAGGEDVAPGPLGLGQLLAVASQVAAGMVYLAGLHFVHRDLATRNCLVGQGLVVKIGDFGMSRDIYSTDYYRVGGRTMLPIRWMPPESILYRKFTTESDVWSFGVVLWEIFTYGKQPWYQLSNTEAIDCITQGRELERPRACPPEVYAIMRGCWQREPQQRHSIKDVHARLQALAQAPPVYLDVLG

## Nc1nc2[nH]c(CN3CCN(c4cc(Cl)cc(Cl)c4)CC3)c(CN3CCN(c4cc(Cl)cc(Cl)c4)CC3)c2c(=O)[nH]1
HOP-62
  growth at 1 µM: 85%
SF-295 [1]
  GI50: 1.82 µM
  TGI: 3.9 µM
SNB-19 [2]
  growth at 10 µM: 79.8%
HT-29
  growth at 0.1 µM: 110%
K562 [3]
  GI50: 2.33 µM
A498
  growth at 10 µM: 64.4%
SR
  growth at 10 µM: 12.1%
TK-10
  growth at 1 µM: 100%
HCC 2998
  growth at 10 µM: 24%
SK-OV-3
  growth at 0.1 µM: 103%
SF-268
  growth at 10 µM: 81.2%
NCI-H23
  growth at 100 µM: -47%
CAKI-1 [4]
  growth at 0.01 µM: 87%
CAKI-1 [5]
  growth at 1 µM: 91%
OVCAR-3 [6]
  growth at 0.01 µM: 105%
UACC-62
  GI50: 1.8 µM
  TGI: 3.42 µM
U-251
  growth at 100 µM: -50%
HCT-15
  growth at 100 µM: -49%
NCI/ADR-RES
  growth at 10 µM: 87.6%
UO-31 [7]
  growth at 0.01 µM: 96%
OVCAR-3 [8]; OVCAR-3
  TGI: 3.38 µM
OVCAR-3 [8]; OVCAR-3, 48 h
  GI50: 1.81 µM
OVCAR-3 [8]; OVCAR-3, read-out: LC50 (the source's name)
  CC50: 6.28 µM
SF-295 [9]
  growth at 1 µM: 89%
HOP-92 [10]
  growth at 10 µM: 66.2%
CAKI-1 [11]; 48 h
  TGI: 18 µM and 1.8 µM
CAKI-1 [11]; 48 h, read-out: LC50 (the source's name)
  CC50: 43.7 µM and 4.37 µM
CAKI-1 [11]; Homo sapiens, CAKI-1
  GI50: 5.1 µM
UO-31 [12]
  growth at 100 µM: -57%
HOP-92 [13]
  growth at 0.1 µM: 73%
MOLT-4
  growth at 1 µM: 90%
UO-31 [14]
  GI50: 1.17 µM and 11.7 µM
  TGI: 31.8 µM and 3.18 µM
SNB-19 [15]
  growth at 0.1 µM: 91%
CCRF-CEM
  growth at 0.01 µM: 99%
[16]
  IC50: 12.4 µM
SNB-75
  GI50: 1.42 µM
  TGI: 2.74 µM
MDA-MB-468; MDA-MB-468
  TGI: 3.75 µM
MDA-MB-468; MDA-MB-468, 48 h
  GI50: 1.72 µM
K562 [17]
  growth at 100 µM: 3%
SF-295 [18]
  growth at 0.01 µM: 87%
Malme-3M
  growth at 0.1 µM: 90%
SW-620
  growth at 1 µM: 88%
OVCAR-4
  growth at 10 µM: 65.8%
